Calls of active or inactive are those of the source. No cut-off for these calls is given here.

Drawing on ChEMBL document CHEMBL1150580, “Microsphaerones A and B, two novel gamma-pyrone derivatives from the sponge-derived fungus Microsphaeropsis sp” (J Nat Prod, 2002), this text covers Activity for two compounds.

For one series, the system named is Artemia salina. The series can be described thus: Toxicity to Artemia salina. It is filed as organism-based. As to conditions: in vivo.
In a further series the test system is Spodoptera littoralis. As to the kind of experiment: Insecticidal activity against Spodoptera littoralis larvae. It is filed as functional, organism-based.

In the case of `C[C@@H](CC(=O)NC(=O)c1coc(/C=C/C=C/CCCCCCC(=O)O)cc1=O)C(=O)O` [MICROSPHAERONE A], the Activity entry in the series on Artemia salina is recorded as “Non-toxic”. Moreover, in the series with Spodoptera littoralis, the result was inactive.

Regarding `NC(=O)c1coc(/C=C/C=C/CCCCCCC(=O)O)cc1=O` [MICROSPHAERONE B], the Activity entry in the series on Artemia salina is recorded as “Non-toxic”. Moreover, the outcome with Spodoptera littoralis was inactive.
